Reference: article PMC6813218 (Frontiers in Molecular Neuroscience, 2019)

Columns and labels:
hCB1R [1] = target: T1, hCB1R (Homo sapiens, UniProt P21554); assay: [3H]CP55940 radioligand binding, CHO cell membranes; conditions: 0.7 nM [3H]CP55940; indomethacin between 10 nM and 10 μM, bell-shaped, greatest at 10 and 100 nM
Protocol: Binding was initiated by the addition of transfected human CB1R or CB2R CHO cell membranes (50 μg protein per well). All assays were performed at 37°C for 60 min before termination by the addition of ice-cold Tris binding buffer, followed by vacuum filtration using a 24-well sampling manifold (Brandel Cell Harvester; Brandel Inc., Gaithersburg, MD, United States) and Brandel GF/B filters that had been soaked in wash buffer at 4°C for at least 24 h. Each reaction well was washed six times with a 1.2 mL aliquot of Tris binding buffer. The filters were oven-dried for 60 min and then placed in 3 ml of scintillation fluid (Ultima Gold XR, PerkinElmer, Seer Green, Buckinghamshire, United Kingdom). Radioactivity was quantified by liquid scintillation spectrometry.

hCB1R [2] = target: T1, hCB1R; type: binding
Protocol: The assay was terminated by rapid filtration onto GF/B filters pre-soaked in assay buffer using a Brandel cell harvester. The filters were washed six times with the ice-cold buffer before being dried in a heated cabinet. Filters were placed in vials to which 3 mL Ultima Gold scintillation fluid was added. The radioactivity in each vial was then counted for 3 min in a Tri-Carb liquid scintillation counter.

hCB1R [3] = target: T1, hCB1R; assay: [35S]GTPγS binding assay, CHO cell membranes; type: biochemical; conditions: 1 μM indomethacin in the presence of 1 nM and 10 μM AEA
Protocol: (§1) Human CB1R and CB2R CHO cell membranes (25 μg protein) were preincubated for 30 min at 30°C with adenosine deaminase (0.5 IU/ml). […] Binding was initiated by the addition of [^35S]GTPγS. Non-specific binding was measured in the presence of 30 μM GTPγS. The reaction was terminated by rapid vacuum filtration (50 mM Tris–HCl; 50 mM Tris–Base; 0.1% BSA) using a 24-well sampling manifold (cell harvester; Brandel, Gaithersburg, MD, United States) and GF/B filters (Whatman, Maidstone, United Kingdom) that had been soaked in buffer (50 mM Tris–HCl; 50 mM Tris–Base; 0.1% BSA) for at least 24 h. Each reaction tube was washed six times with a 1.2-mL aliquot of ice-cold wash buffer. The filters were oven-dried for at least 60 min and then placed in 3 mL of scintillation fluid (Ultima Gold XR, PerkinElmer, Cambridge, United Kingdom). Radioactivity was quantified by liquid scintillation spectrometry.

hCB1R [4] = target: T1, hCB1R; type: cell-based; conditions: indomethacin alone
Protocol: (§2) Cells were fixed for 10 min at room temperature with 4% paraformaldehyde and washed three times with 0.1 M PBS for 5 min each. Cells were incubated with blocking solution (PBS, 20% Odyssey blocking buffer, and 0.1% TritonX-100) for 1 h at room temperature. […] Cells were washed three times with PBS for 5 min each. Cells were incubated in IR^CW700dye or IR^CW800dye (1:500; Rockland Immunochemicals) and washed three times with PBS for 5 min each. Analyses were conducted using the Odyssey Imaging system and software (version 3.0; Li-Cor).

hCB1R [5] = target: T1, hCB1R; type: cell-based; conditions: indomethacin alone; remark: listed apart in the source
Protocol: (§3) Briefly, 48 h post-transfection cells were washed twice with cold PBS and suspended in BRET buffer [PBS supplemented with glucose (1 mg/mL), benzamidine (10 mg/mL), leupeptin (5 mg/mL), and a trypsin inhibitor (5 mg/mL)]. Cells were treated with compounds as indicated (PerkinElmer) and coelenterazine 400a substrate (50 μM; Biotium, Hayward, CA, United States) was added.

hCB1R [6] = target: T1, hCB1R; type: cell-based; conditions: indomethacin alone; remark: listed apart in the source
Protocol: (§4) HEK-CRE cells were transfected with CB1R-GFP^2 or CB2R-GFP^2. Forty-eight hours post-transfection cells were washed twice with cold PBS and suspended in BRET buffer. Cells were dispensed into 96-well plates (10,000 cells/well) and treated with 10 μM forskolin and ligands (PerkinElmer). Media was aspirated from cells and cells were lysed with passive lysis buffer for 20 min at room temperature (Promega, Oakville, ON, Canada).

hCB1R [7] = assay: Bias analysis by operational model, ΔΔLogR (cAMP–βarrestin2), CHO cells; type: cell-based, human; conditions: reference agonist CP55940
Protocol: Concentration-response curves (CRC) were fit using non-linear regression with variable slope (four parameters) and used to calculate EC50, Emin, and Emax (GraphPad, Prism, v. 8.0). […] Statistical analyses were conducted by Student’s one

C57BL/6J mice [8] = assay: Tetrad: tail flick latency (anti-nociception); type: in vivo, mouse; conditions: for tail flick latency compared to vehicle: single agent i.p. (CP55940 0.1 mg/kg; indomethacin 2 mg/kg), 0.5, 1 and 4 h
Protocol: (§5) Seven-week old, male, C57BL/6J mice (mean weight 25.2 ± 0.5 g) were purchased from The Jackson Laboratory (Bar Harbor, ME, United States). Animals were group housed (5 per cage) with ad libitum access to food, water, and environmental enrichment and maintained on a 12 h light/dark cycle. […] All protocols were in accordance with the guidelines detailed by the Canadian Council on Animal Care (CCAC; Ottawa ON: Vol. 1, 2nd Ed., 1993; Vol. 2, 1984), approved by the Carleton Animal Care Committee at Dalhousie University. In keeping with the ARRIVE guidelines, power analyses were conducted to determine the minimum number of animals required for the study and animals were purchased – rather than bred – to limit animal waste, and all assessments of animal behavior were made by individuals blinded to treatment group ([Kilkenny et al., 2010]).
Anti-nociception was determined by assessing tail flick latency immediately prior to injection and 0.5, 1, and 4 h following injection. Mice were restrained with their tails placed ∼1 cm into water held at 52°C and the time until the tail was removed was recorded as tail flick latency (s). Observations were ended at 10 s.

C57BL/6J mice [9] = assay: Tetrad: catalepsy, ring holding assay; type: in vivo, mouse; conditions: for catalepsy: single agent i.p. (CP55940 0.1 mg/kg; indomethacin 2 mg/kg), 1 and 4 h
Protocol: as §5
Catalepsy was assessed in the ring holding assay immediately prior to injection and 1 and 4 h following injection. The mice were placed such that their forepaws clasped a 5 mm ring positioned 5 cm above the surface of the testing space. The length of time the ring was held was recorded (s). The trial was ended if the mouse turned its head or body, or made three consecutive escape attempts.

C57BL/6J mice [10] = assay: Tetrad: internal body temperature; type: in vivo, mouse; conditions: 0.5 and 1 h; for body temperature compared to vehicle: single agent i.p. (CP55940 0.1 mg/kg; indomethacin 2 mg/kg)
Protocol: as §5
Internal body temperature was measured via rectal thermometer immediately prior to injection and 0.5, 1, and 4 h following injection.

C57BL/6J mice [11] = assay: Tetrad: locomotion, open field test; type: in vivo, mouse
Protocol: as §5
Locomotion was assessed in the open field test immediately prior to injection and 1 and 4 h following injection. Mice were placed in an open space 90 cm × 60 cm and total distance was recorded for 5 min.

[12] = parameters: method as in Remmel et al., 2004; conditions: ref Remmel et al., 2004; cited from earlier work
ICR mice = system: ICR mice; parameters: method as in Wiley et al. (2006); conditions: indomethacin 10 or 30 mg/kg, AEA 30 mg/kg, ref Wiley et al. (2006); cited from earlier work
hCB2R [13] = target: T2, hCB2R (Homo sapiens, UniProt P34972); assay: [35S]GTPγS binding assay, CHO cell membranes; type: biochemical; parameters: expressed in transfected cells; HEK-CRE reporter cells for the cAMP luciferase assay; conditions: data not shown
Protocol: as §1

hCB2R [14] = target: T2, hCB2R; assay: cAMP luciferase reporter assay, HEK-CRE hCB2R-GFP2; type: cell-based; parameters: expressed in transfected cells; HEK-CRE reporter cells for the cAMP luciferase assay; conditions: indomethacin alone
Protocol: as §4

hCB2R [15] = target: T2, hCB2R; assay: βarrestin1 recruitment, BRET2, HEK293A hCB2R-GFP2; type: cell-based; parameters: expressed in transfected cells; host or cells: HEK293A cells, transient (Lipofectamine 2000); conditions: indomethacin alone
Protocol: as §3

hCB2R [16] = target: T2, hCB2R; assay: ERK1/2 phosphorylation, in-cell western, HEK293A hCB2R-GFP2; type: cell-based; parameters: expressed in transfected cells; host or cells: HEK293A cells; HEK-CRE reporter cells for the cAMP luciferase assay; conditions: indomethacin alone
Protocol: as §2

hCB2R [17] = target: T2, hCB2R; assay: PLCβ3 phosphorylation, in-cell western, HEK293A hCB2R-GFP2; type: cell-based; parameters: expressed in transfected cells; host or cells: HEK293A cells; HEK-CRE reporter cells for the cAMP luciferase assay; conditions: indomethacin alone
Protocol: as §2

CB1R [18] = system: CB1R; parameters: method as in Pamplona et al., 2012; conditions: PAM of ligand binding and cAMP inhibition at CB1R; ref Pamplona et al., 2012; cited from earlier work
CB1R [19] = system: CB1R; parameters: method as in Laprairie et al., 2019; conditions: ref Laprairie et al., 2019; cited from earlier work

T1 sequence (P21554 whole entry): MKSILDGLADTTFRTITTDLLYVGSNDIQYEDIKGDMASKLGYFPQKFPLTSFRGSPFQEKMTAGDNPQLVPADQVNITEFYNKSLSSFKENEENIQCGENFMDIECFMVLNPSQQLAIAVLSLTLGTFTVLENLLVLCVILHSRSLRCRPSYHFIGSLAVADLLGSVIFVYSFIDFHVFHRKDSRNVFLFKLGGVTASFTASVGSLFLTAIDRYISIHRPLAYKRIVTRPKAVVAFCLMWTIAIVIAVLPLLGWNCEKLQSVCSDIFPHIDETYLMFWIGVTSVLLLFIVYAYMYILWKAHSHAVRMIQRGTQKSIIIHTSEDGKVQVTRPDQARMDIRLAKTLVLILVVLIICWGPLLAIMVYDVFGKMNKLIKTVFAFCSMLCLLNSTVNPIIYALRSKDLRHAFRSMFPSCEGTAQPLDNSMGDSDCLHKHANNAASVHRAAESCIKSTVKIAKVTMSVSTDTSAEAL
T2 sequence (P34972 whole entry): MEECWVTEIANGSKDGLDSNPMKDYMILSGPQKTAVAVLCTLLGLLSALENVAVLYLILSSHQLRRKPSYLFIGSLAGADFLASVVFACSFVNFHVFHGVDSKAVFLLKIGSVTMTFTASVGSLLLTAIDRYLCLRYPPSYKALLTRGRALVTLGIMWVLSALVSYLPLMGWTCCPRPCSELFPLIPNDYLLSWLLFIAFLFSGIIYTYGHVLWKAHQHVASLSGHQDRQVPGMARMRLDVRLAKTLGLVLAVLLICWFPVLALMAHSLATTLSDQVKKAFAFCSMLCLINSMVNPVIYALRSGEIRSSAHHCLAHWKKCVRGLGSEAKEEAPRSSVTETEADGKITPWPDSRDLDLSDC

Compound: COc1ccc2c(c1)c(CC(=O)O)c(C)n2C(=O)c1ccc(Cl)cc1 [Indomethacin, indomethacin]
- [3H]CP55940 binding to hCB1R (hCB1R [1]): enhanced
- rate of dissociation of [3H]CP55940 compared to vehicle (hCB1R [2]; 1 μM indomethacin): did not change
- t1/2 (min) (95% CI) of [3H]CP55940 dissociation (hCB1R [2]; +1 μM indomethacin, 24°C, dissociation started with 1 μM unlabeled CP55940): 4.67 (3.17–8.80) min
- [35S]GTPγS binding to hCB1R (hCB1R [3]): enhanced
- hCB1R-dependent ERK1/2 phosphorylation (hCB1R [4]): did not alter
- hCB1R-dependent PLCβ3 phosphorylation (hCB1R [4]): did not alter
- hCB1R-dependent βarrestin1 recruitment (hCB1R [5]): did not alter
- hCB1R-dependent cAMP levels (hCB1R [6]): did not alter
- bias between cAMP inhibition and βarrestin2 recruitment (ΔΔLogR) (hCB1R [7]; indomethacin in the presence of AEA): selectively enhance inhibition of cAMP
- bias between cAMP inhibition and βarrestin2 recruitment (ΔΔLogR) (hCB1R [7]; indomethacin in the presence of CP55940): did not display bias
- tail flick latency compared to CP55940 or indomethacin alone (C57BL/6J mice [8]; CP55940 0.1 mg/kg + indomethacin 4 mg/kg i.p., 1 h): increased
- tail flick latency compared to vehicle (C57BL/6J mice [8]): increased
- catalepsy time compared to CP55940 alone (C57BL/6J mice [9]; 2 and 4 mg/kg indomethacin with CP55940 0.1 mg/kg i.p., 1 h): significantly increased
- catalepsy (C57BL/6J mice [9]): not
- body temperature compared to CP55940 or indomethacin alone (C57BL/6J mice [10]; CP55940 0.1 mg/kg + indomethacin 4 mg/kg i.p.): further reduced
- body temperature compared to vehicle (C57BL/6J mice [10]): reduced
- locomotion compared to CP55940 or indomethacin alone (C57BL/6J mice [11]; CP55940 0.1 mg/kg + indomethacin 4 mg/kg i.p., 4 h): further reduced
- t1/2 in mouse [12]: 51 min
- AEA-dependent hypolocomotion, anti-nociception, hypothermia, and immobility (ICR mice): enhanced
- [35S]GTPγS binding to hCB2R (hCB2R [13]): did not effect
- hCB2R-dependent cAMP inhibition (hCB2R [14]): did not alter
- hCB2R-dependent βarrestin1 recruitment (hCB2R [15]): did not alter
- hCB2R-dependent ERK1/2 phosphorylation (hCB2R [16]): did not alter
- hCB2R-dependent PLCβ3 phosphorylation (hCB2R [17]): did not alter

Compound: CCCCC[C@H](O)/C=C/C=C\C=C\C=C\[C@@H](O)[C@@H](O)CCCC(=O)O [Lipoxin A4, lipoxin A4]
- potency in vitro (CB1R [18]): high micromolar

Compound: CCCCCCC(C)(C)c1ccc([C@@H]2C[C@H](O)CC[C@H]2CCCO)c(O)c1 [CP55940, (-)-cis-3-[2-Hydroxy-4-(1,1-dimethylheptyl)phenyl]-trans-4-(3-hydroxypropyl)cyclohexanol]
- tail flick latency compared to vehicle (C57BL/6J mice [8]): increased
- catalepsy (C57BL/6J mice [9]): increased
- body temperature compared to vehicle (C57BL/6J mice [10]): reduced
- locomotion (distance traveled in the open field) compared to vehicle (C57BL/6J mice [11]; CP55940 0.1 mg/kg i.p., 1 and 4 h): reduced

Compound: C=C(C)[C@@H]1CCC(C)=C[C@H]1c1c(O)cc(CCCCC)cc1O [CBD, cannabidiol]
- concentrations that reduce CP55940 binding (CB1R [19]): > 1 µM
